Test results reported in publication PMC6017976, “Enzyme Kinetics and Molecular Docking Studies on Cytochrome 2B6, 2C19, 2E1, and 3A4 Activities by Sauchinone” (Molecules : A Journal of Synthetic Chemistry and Natural …, 2018).

How the values were obtained:
[1] = molecular target: T1, CYP2A6 (Homo sapiens, UniProt P11509); assay: Reversible inhibition (RI) of CYP2A6 activity in HLMs (cocktail probe assay); settings: read-out: IC50 on CYP2A6 activity (RI); HLMs; reversible inhibition; 5 μM coumarin; 30 min incubation; inhibitor 0–300 μM
T1 sequence (P11509 1-494): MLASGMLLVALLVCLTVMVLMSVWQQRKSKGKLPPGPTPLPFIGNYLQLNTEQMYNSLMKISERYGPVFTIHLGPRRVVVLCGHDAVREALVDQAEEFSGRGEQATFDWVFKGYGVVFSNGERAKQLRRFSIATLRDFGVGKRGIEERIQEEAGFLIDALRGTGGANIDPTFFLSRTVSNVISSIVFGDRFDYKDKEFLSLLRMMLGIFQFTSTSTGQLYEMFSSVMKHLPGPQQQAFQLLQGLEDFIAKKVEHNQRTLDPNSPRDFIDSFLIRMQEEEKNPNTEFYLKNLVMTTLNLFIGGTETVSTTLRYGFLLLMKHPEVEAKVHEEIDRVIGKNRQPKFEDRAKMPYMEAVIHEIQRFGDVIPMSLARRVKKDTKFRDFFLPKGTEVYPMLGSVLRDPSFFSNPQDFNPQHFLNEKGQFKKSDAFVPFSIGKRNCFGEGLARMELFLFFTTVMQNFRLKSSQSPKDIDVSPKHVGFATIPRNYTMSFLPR

[2] = Drug interaction of sibutramine, clopidogrel, or chlorzoxazone with sauchinone in mice (plasma pharmacokinetics); settings: for CL/F / Tmax / half-life / AUC: male, ICR, mouse, in vivo; for AUC: plasma, 1 mg/kg sibutramine, 10 mg/kg clopidogrel or 10 mg/kg chlorzoxazone
Protocol: For analysis of sibutramine, a mobile phase was made, consisting of 10 mM ammonium acetate adjusted to pH 4 with acetic acid: acetonitrile (94:6, v/v) and was eluted at 0.2 mL/min. […] Other parameters of mass spectrometers were the same as those used for analysis of metabolites of CYP substrates.
Male ICR mice (5 weeks old, weight of 20–25 g) were purchased from the Charles River Company Korea (Orient, Seoul, Korea). […] They were provided free access to food and water. These mice were allowed to acclimate to these conditions for three days prior to inclusion in the experiments.
Surgical procedures for mice were conducted under tiletamine HCl and zolazepam HCl anesthesia by intramuscular injection. The carotid artery (for blood sampling) cannulation was carried out using catheters (BASi, West Lafayette, IN, USA). Drug administration and blood sampling were performed at 5 h after surgery [55]. […] Other procedures were the same as those used for the sibutramine pharmacokinetic study.
AUC was calculated using the trapezoidal rule method. Standard methods [56] were used to calculate pharmacokinetic parameters using non-compartmental analysis (WinNonlin 2.1; Pharmasight Corp., Mountain View, CA, USA). Cmax and Tmax were read reversibly from extrapolated data.

[3] = mice, drug with sauchinone versus drug alone, decrease
[4] = mice, drug with sauchinone versus drug alone, increase

Q: With `N[C@@H]1C[C@H]1c1ccccc1` (racemic) [tranylcypromine, reference compound] as the compound, how does the IC50 [1] read?
A: Its IC50 is 1990 nM.

Q: What does the source list for `CC(C)CC(N(C)C)C1(c2ccc(Cl)cc2)CCC1` (stereo not shown) [Sibutramine, sibutramine]?
A: CL/F [2]: 0.253 ± 0.0208 mL/min/kg; Tmax [2]: 0.25 h; half-life [2]: 3.28 ± 0.598 h; CL/F ([2]; po): 0.205 ± 0.0186 mL/min/kg; Tmax ([2]; po): 0.25 h; half-life ([2]; po): 2.75 ± 0.53 h; AUC ([2]; po, mice, with sauchinone (100 mg/kg oral, 30 min before)): 82000 ng·h/mL; AUC ([2]; po, mice, without sauchinone (vehicle), oral administration per Table 3): 66300 ng·h/mL; CL/F slower with sauchinone than drug alone (by %) [2, 3]: 19.0%; t1/2 smaller with sauchinone than drug alone (by %) [2, 3]: 16.2%; AUC greater with sauchinone than drug alone (by %) [2, 4]: 23.6%; Cmax higher with sauchinone than drug alone (by %) [2, 4]: 41.5%
